{"source": "patent US7235560B2", "about": "“Pyrimidine derivative as selective COX-2 inhibitors” (priority 2002, dated 2007)", "key": {"microsomal h-COX2": {"target": "T1, microsomal h-COX2 (Homo sapiens, UniProt P35354)", "T1 construct": "made in house; host or cells: baculovirus infected SF9 cells (microsomal preparation)", "T1 sequence (P35354 18-604)": "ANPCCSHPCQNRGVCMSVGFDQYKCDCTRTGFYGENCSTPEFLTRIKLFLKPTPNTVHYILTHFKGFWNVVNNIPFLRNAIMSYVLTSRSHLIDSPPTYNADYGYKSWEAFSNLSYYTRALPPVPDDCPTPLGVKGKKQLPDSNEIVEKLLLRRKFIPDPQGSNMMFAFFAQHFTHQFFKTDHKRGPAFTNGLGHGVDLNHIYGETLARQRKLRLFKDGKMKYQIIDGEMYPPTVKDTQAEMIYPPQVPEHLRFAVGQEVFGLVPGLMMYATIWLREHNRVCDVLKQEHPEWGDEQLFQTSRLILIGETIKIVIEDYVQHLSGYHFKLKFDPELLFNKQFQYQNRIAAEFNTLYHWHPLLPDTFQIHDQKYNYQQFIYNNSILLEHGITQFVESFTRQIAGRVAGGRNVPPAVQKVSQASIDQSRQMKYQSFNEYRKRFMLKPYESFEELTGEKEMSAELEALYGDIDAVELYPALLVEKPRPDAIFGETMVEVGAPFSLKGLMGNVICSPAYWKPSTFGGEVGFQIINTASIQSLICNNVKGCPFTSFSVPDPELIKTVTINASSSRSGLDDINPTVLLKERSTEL", "assay": "Microsomal assay, inhibition of h-COX2 (PGE2 by EIA)", "assay_type": "biochemical", "conditions": "microsomal preparation from baculovirus infected SF9 cells; 1 hour preincubation; 0.1 μM arachidonic acid; read-out: COX-2: IC50", "description": "Inhibitory activity against microsomal h-COX2 was assessed against a microsomal preparation from baculovirus infected SF9 cells. An aliquot of microsomal preparation was thawed slowly on ice and a 1/40,000 dilution prepared from it into the assay buffer (sterile water, degassed with argon containing 100 mM HEPES (pH 7.4), 10 mM EDTA (pH7.4), 1 mM phenol, 1 mM reduced glutathione, 20 mg/ml gelatin and 0.001 mM Hematin). Once diluted the enzyme solution was then sonicated for 5 seconds (Branson sonicator, setting 4, 1 cm tip) to ensure a homogeneous suspension. 155 μl enzyme solution was then added to each well of a 96-well microtitre plate containing either 5 μl test compound (40× required test concentration) or 5 μl DMSO for controls. Plates were then mixed and incubated at room temperature for 1 hour. Following the incubation period, 40 μl of 0.5 μM arachidonic acid was added to each well to give a final concentration of 0.1 μM. Plates were then mixed and incubated for exactly 10 minutes (room temperature) prior to addition of 25 μl 1M HCl (hydrochloric acid) to each well to stop the reaction. 25 μl of 1M NaOH (sodium hydroxide) was then added to each well to neutralise the solution prior to determination of PGE2 levels by enzyme immunoassay (EIA).\nThe following IC50 values for inhibition of COX-2 and COX-1 were obtained from the microsomal assay for compounds of the invention: […]"}, "COX-1": {"target": "COX-1 (Homo sapiens, UniProt P23219)", "sequence (P23219 24-599)": "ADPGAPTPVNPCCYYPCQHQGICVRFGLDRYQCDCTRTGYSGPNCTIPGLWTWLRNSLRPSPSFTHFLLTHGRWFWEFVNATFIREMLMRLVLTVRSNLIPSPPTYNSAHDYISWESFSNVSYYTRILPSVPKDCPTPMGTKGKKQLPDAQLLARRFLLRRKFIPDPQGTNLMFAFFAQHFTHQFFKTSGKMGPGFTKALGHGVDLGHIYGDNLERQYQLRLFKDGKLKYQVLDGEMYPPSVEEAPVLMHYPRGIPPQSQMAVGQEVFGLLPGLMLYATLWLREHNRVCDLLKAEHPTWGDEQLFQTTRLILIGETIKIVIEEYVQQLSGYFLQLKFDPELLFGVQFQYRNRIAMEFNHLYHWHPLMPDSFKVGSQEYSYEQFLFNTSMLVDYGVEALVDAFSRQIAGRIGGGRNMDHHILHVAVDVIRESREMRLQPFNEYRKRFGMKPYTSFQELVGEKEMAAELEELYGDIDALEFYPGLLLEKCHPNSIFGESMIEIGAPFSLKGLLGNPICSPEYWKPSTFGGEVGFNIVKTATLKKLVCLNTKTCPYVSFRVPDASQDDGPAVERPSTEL", "assay": "Microsomal assay, inhibition of COX-1", "assay_type": "biochemical"}}}
{"compound": "Cc1cc(-c2ccc(S(C)(=O)=O)cn2)nc(NCc2ccccc2)n1", "note": "[Example 1]", "values": [{"measurement": "IC50", "setting": "microsomal h-COX2", "value": 51, "unit": "nM"}, {"measurement": "IC50", "setting": "COX-1", "value": 23100, "unit": "nM"}]}
{"compound": "Cc1cccc(CN(C)c2nc(-c3ccc(S(C)(=O)=O)cn3)cc(C(F)(F)F)n2)n1", "note": "[Example 3, [4-(5-Methanesulfonyl-pyridin-2-yl)-6-trifluoromethyl-pyrimidin-2-yl]-methyl-(6-methyl-pyridin-2-ylmethyl)-amine]", "values": [{"measurement": "IC50", "setting": "microsomal h-COX2", "value": 5, "unit": "nM"}, {"measurement": "IC50", "setting": "COX-1", "value": 67100, "unit": "nM"}]}
{"compound": "CS(=O)(=O)c1ccc(-c2cc(C(F)(F)F)nc(NC3CCCCC3)n2)nc1", "note": "[Example 5, Cyclohexyl-[4-(5-methanesulfonyl-pyridin-2-yl)-6-trifluoromethyl-pyrimidin-2-yl]-amine]", "values": [{"measurement": "IC50", "setting": "microsomal h-COX2", "value": 19, "unit": "nM"}, {"measurement": "IC50", "setting": "COX-1", "value": "> 100000", "unit": "nM"}]}
